From patent publication US20050222054A1, “Combination comprising a CDK inhibitor and doxorubicin” (Cyclacel Limited, priority 2002, published 2005)
Entries after “also recorded” stand apart in the source; their conditions may differ.

Assays:
[1] = system: POMC (Rb deficient) tumours in POMC-Cre/POMC-Luc;Rb-flox/flox compound mutant mice; details: doxorubicin 5 mg/kg intravenously once a week for four weeks; in the combination, roscovitine 500 mg/kg orally twice daily for two days before each doxorubicin
Source text: A conditional mouse model for retinoblastoma-dependent sporadic cancer was generated (Vooijs et al; Cancer Res 2002 Mar 15; 62(6): 1862-7; 2002) which permits non-invasive monitoring of pituitary tumour development in live animals via in vivo bioluminescence imaging of luciferase expression. This mouse model permits the longitudinal monitoring of tumour onset, progression and response to therapeutic agents that specifically target the retinoblastoma pathway. By way of summary, a retinoblastoma conditional KO line was crossed with a POMC-Cre/POMC-Luciferase transgenic line to generate POMC-Cre/POMC-Luc;Rb-flox/flox compound mutant mice. These mice develop POMC (Rb deficient) tumours (Vooijs et al, ibid) and as illustrated in FIG. 3.
In this study, doxorubicin was administered once a week for four weeks (5 mg/kg; intravenously).

SK-UT-1 cells = experiment: Flow cytometry DNA cell cycle analysis; type: cell-based, human; details: 48 h treatment
[2] = system: osteosarcoma line SaOS-2 (pRb-deficient); details: pRb-deficient SaOS-2, in combination with doxorubicin; not seen in SaOS-2 transfected with Rb; cited from earlier work

Structure (SMILES) | tumour response (bioluminescence) [1] | % of total, G1 (SK-UT-1 cells) | % of total, G2M (SK-UT-1 cells) | % of total, Go (SK-UT-1 cells) | % of total, S (SK-UT-1 cells) | sensitisation to the cytotoxic effects of doxorubicin [2]
COc1cccc2c1C(=O)c1c(O)c3c(c(O)c1C2=O)C[C@@](O)(C(=O)CO)C[C@@H]3O[C@H]1C[C@H](N)[C@H](O)[C@H](C)O1 [Doxo] | delay tumorigenesis; also recorded: temporarily halts tumour progression | 9% | 43% | 22% | 18% | 
CC[C@H](CO)Nc1nc(NCc2ccccc2)c2ncn(C(C)C)c2n1 [Roscovitine, 6-benzylamino-2-[(R)-1-ethyl-2-hydroxyethylamino]-9-isopropylpurine] |  | 36% | 19% | 23% | 16% | 
CN1CC[C@H](c2c(O)cc(O)c3c(=O)cc(-c4ccccc4Cl)oc23)[C@H](O)C1 [flavopiridol] |  |  |  |  |  | significantly sensitised
